Experimental findings from patent publication US7951789B2 (priority 2006, dated 2011) are described below.

The test system of data set [1] is HCV Conl subgenomic replicon (GS4.1 cells). As to the kind of experiment: HCV replicon assay (NS4A ELISA, HCV ELISA 2). To be noted: Hepatitis C virus. The class given is cell-based. The protocol: (§1) Huh-7 cells containing HCV Conl subgenomic replicon (GS4.1 cells), (C. Seeger; Fox Chase University, Philadelphia, Pa., USA), are grown in Dulbecco's Modified Eagle Medium (DMEM) supplemented with 10% fetal bovine serum (FBS), 2 mM L-glutamine, 110 mg/L sodium pyruvate, 1×non-essential amino acids, 100 U/mL penicillin-streptomycin and 0.5 mg/mL G418 (Invitrogen). For dose-response testing, the cells are seeded in 96-well plates at 7.5×10^3 cells/well in a volume of 50 μL and incubated at 37° C./5% CO2. Three hours after plating, 50 μL of ten 2-fold serial dilutions of compounds (highest concentration, 75 μM) are added and cell cultures were incubated at 37° C./5% CO2 in the presence of 0.5% DMSO. Alternatively, compounds are tested at a single concentration of 15 μM. In all cases, Huh-7 cells lacking the HCV replicon served as negative control. The cells are incubated in the presence of compounds for 72 hours after which they were monitored for expression of the NS4A protein by enzyme-linked immunosorbent assay (ELISA). For this, the plates were then fixed for 1 min with 1:1 acetone:methanol, washed twice with phosphate-buffered saline (PBS), 0.1% Tween 20, blocked for 1 hour at room temperature with TNE buffer containing 10% FBS and then incubated for 2 h at 37° C. with the anti-NS4A mouse monoclonal antibody A-236 (ViroGen) diluted in the same buffer. After washing three times with PBS, 0.1% Tween 20, the cells are incubated 1 hour at 37° C. with anti-mouse immunoglobulin G-peroxidase conjugate in TNE, 10% FBS. After washing as described above, the reaction is developed with O-phenylenediamine (Zymed). The reaction is stopped after 30 minutes with […] and the absorbance is read at 492 nm using a Sunrise Tecan spectrophotometer. EC50 values are determined from the % inhibition versus concentration data using a sigmoidal non-linear regression analysis based on four parameters with Tecan Magellan software. […] For cytotoxicity evaluation, GS4.1 cells are treated with compounds as described above and cellular viability was monitored using a Cell Titer 96 AQueous One Solution Cell Proliferation Assay (Promega). CC50 values are determined from the % cytotoxicity versus concentration data with Tecan Magellan software as described above.
A general note: Replicon systems follow genome replication, usually without infectious particles.

Data set [2] in a line: Cytotoxicity evaluation in GS4.1 cells (Cell Titer 96 AQueous One Solution). The class given is cell-based. To be noted: human; for CC50: 72 hours. As for the experimental part:
as §1

The mark [3] stands for this setting: GS4.1 cells, 72 hours, NS4A ELISA, read-out: HCV ELISA 2 EC50.
[4] abbreviates: 72 h, read-out: HCV ELISA 2 EC50 (μM).

Like-named read-outs stand apart in the source and are kept apart here. Where only a bound is given, the exact number is not on record here.

One may read the EC50 as the concentration that produces a half-maximal response. In general, CC50 refers to the concentration that lowers cell viability or growth by half. Read a high CC50 as lower toxicity to the cells. On to `C[C@@]1(O)[C@H](O)[C@@H](CO)O[C@H]1n1cc(F)c2c(N)ncnc21` [Example E810, 2′-C-methyl-7-deaza-7-fluoro-adenosine, reference compound], for which the EC50 in data set [1] (setting [3]) is under 1 µM. The same compound displayed a CC50 in data set [2] of over 75 µM.
For the compound `CC(=O)O[C@@H]1[C@@H](COP(=O)(NCc2ccccc2)OCCSC(=O)C(C)(C)CO)O[C@@H](n2ccc(N)nc2=O)[C@]1(C)OC(C)=O` (stereo in doubt) [Example B390, Hydroxy-tBuSATE N-benzylphosphoramidate Derivative of 2′-C-methyl-2′,3′-di-O-acetyl-cytidine], the EC50 in data set [1] (setting [3]) is over 10 µM. Besides, the CC50 in data set [2] was over 75 µM.
In the case of `CC(C)(CO)C(=O)SCCOP(=O)(NCc1ccccc1)OC[C@H]1O[C@@H](n2ccc(=O)[nH]c2=O)[C@](C)(O)[C@@H]1O` (stereo partly shown) [Example B229, Hydroxy-tBuSATE N-benzylphosphoramidate Derivative of 2′-C-methyluridine], the EC50 in data set [1] (setting [3]) lay in the range of 1 to 10 µM. This compound displayed a CC50 in data set [2] of over 75 µM.
For `CC(C)(CO)C(=O)SCCOP(=O)(NCc1ccc(C(F)(F)F)cc1)OC[C@H]1O[C@@H](n2ccc(N)nc2=O)[C@](C)(O)[C@@H]1O` (stereo in doubt) [Example B399, Hydroxy-tBuSATE N-(4-(trifluoromethyl)benzyl)phosphosphoramidate Derivative of 2′-C-methylcytidine], in data set [1] (setting [3]), the EC50 was 1 to 10 µM. Moreover, the CC50 in data set [2] was over 75 µM.
In the case of `CC(=O)Nc1ccn([C@@H]2O[C@H](COP(=O)(NCc3ccccc3)OCCSC(=O)C(C)(C)CO)[C@@H](O)[C@@]2(C)O)c(=O)n1` (stereo in doubt) [Example B183, Hydroxy-tBuSATE N-benzylphosphoramidate Derivative of 2′-C-methyl-NH-4-acetyl-cytidine], the EC50 in data set [1] (setting [3]) was over 10 µM. Also, in data set [2], the 50% cytotoxic concentration (CC50) was over 75 µM.
Take `CC(C)(CO)C(=O)SCCOP(=O)(OC[C@H]1O[C@@H](n2ccc(N)nc2=O)[C@](C)(O)[C@@H]1O)N1CCCCC1` (mixture of isomers) [Example B353, Hydroxy-tBuSATE N-piperidinephosphosphoramidate Derivative of 2′-C-methyl-cytidine]: the concentration for a half-maximal effect (EC50) in data set [1] (setting [4]) is over 10 µM. This compound showed a CC50 at 72 h in data set [2] of over 75 µM.
With `CC(C)(CO)C(=O)SCCOP(=O)(NCc1ccccc1)OC[C@H]1O[C@@H](n2cnc3c(N)ncnc32)[C@](C)(O)[C@@H]1O` (mixture of isomers) [Example B263, Hydroxy-tBuSATE N-benzylphosphoramidate Derivative of 2′-C-methyladenosine], the EC50 in data set [1] (setting [3]) was 1 to 10 µM. The compound further had a CC50 in data set [2] of over 75 µM.
For `CC(C)(CO)C(=O)SCCOP(=O)(NCc1ccccc1)OC[C@H]1O[C@@H](n2cnc3c(Cl)ncnc32)[C@](C)(O)[C@@H]1O` (stereo partly drawn) [Example B396, Hydroxy-tBuSATE N-benzylphosphoramidate Derivative of 9-[2-C-methyl-β-ribofuranosyl]-6-chloropurine] the same measures were under 1 µM and at most 75 µM.
In the case of `C[C@@]1(O)[C@H](O)[C@@H](CO)O[C@H]1n1cnc2c(=O)[nH]c(N)nc21` [A844 (NM 108), 2′-C-methylguanosine, reference compound], the EC50 in data set [1] (setting [3]) lay within 1 to 10 µM. The cytotoxic concentration (CC50) in data set [2] is over 75 µM.
Regarding `C[C@@]1(O)[C@H](O)[C@@H](CO)O[C@H]1n1cnc2c(=O)[nH]cnc21` [Example A608, 2′-C-methylinosine, reference compound], the EC50 in data set [1] (setting [3]) is over 10 µM. Further, the CC50 in data set [2] was over 75 µM.
For the compound `CCCCCCCCN(C)P(=O)(OCCSC(=O)C(C)(C)CO)OC[C@H]1O[C@@H](n2ccc(N)nc2=O)[C@](C)(O)[C@@H]1O` (stereo in doubt) [Example B204, Hydroxy-tBuSATE N-(n-methyl-n-octyl-amine)phosphosphoramidate Derivative of 2′-C-methylcytidine], in data set [1] (setting [4]), the EC50 lay in the range of 1 to 10 µM. This compound also displayed a CC50 at 72 h in data set [2] of over 75 µM.
As for `CC(C)(CO)C(=O)SCCOP(=O)(NC1CCCCC1)OC[C@H]1O[C@@H](n2ccc(N)nc2=O)[C@](C)(O)[C@@H]1O` (stereo in doubt) [Example B354, Hydroxy-tBuSATE N-cyclohexylaminephosphosphoramidate Derivative of 2′-C-methyl-cytidine], the EC50 in data set [1] (setting [3]) lay in the range of 1 to 10 µM. The compound further came in with a CC50 in data set [2] of over 75 µM.
For the compound `CCCCN(CCCC)P(=O)(OCCSC(=O)C(C)(C)CO)OC[C@H]1O[C@@H](n2ccc(N)nc2=O)[C@](C)(O)[C@@H]1O` (mixture of isomers) [Example B244, Hydroxy-tBuSATE N,N-(dibutylamine)phosphoramidate Derivative of 2′-C-methylcytidine], the EC50 in data set [1] (setting [4]) is over 10 µM. Moreover, the CC50 at 72 h in data set [2] was over 75 µM.
With `CC(C)(CO)C(=O)SCCOP(=O)(NCc1ccc(C(F)(F)F)cc1)OC[C@H]1O[C@@H](n2cnc3c(=O)[nH]c(N)nc32)[C@](C)(O)[C@@H]1O` (stereo in doubt) [Example B242, O-(Hydroxy-tert-butyl-S-acyl-2-thioethyl)-2′-C-methylguanosin-5′-yl-N-(4-trifluoromethyl)-benzylaminyl Phosphate], the EC50 in data set [1] (setting [3]) was under 1 µM. The CC50 in data set [2] was over 75 µM.
On the same counts, the results for `CC(C)(CO)C(=O)SCCOP(=O)(NCc1ccccc1)OC[C@H]1O[C@@H](n2cc(F)c3c(N)ncnc32)[C@](C)(O)[C@@H]1O` (mixture of isomers) [Example B436, Hydroxy-tBuSATE N-benzylphosphoramidate Derivative of 2′-C-methyl-7-deaza-7-fluoro-adenosine] are 1 to 10 µM and over 75 µM.
Turning to `CC(C)(CO)C(=O)SCCOP(=O)(OC[C@H]1O[C@@H](n2ccc(N)nc2=O)[C@](C)(O)[C@@H]1O)N1CCOCC1` (mixture of isomers) [Example B391, Hydroxy-tBuSATE N-morpholinophosphosphoramidate Derivative of 2′-C-methylcytidine], the EC50 in data set [1] (setting [4]) was over 10 µM. In data set [2], this compound yielded a CC50 at 72 h of over 75 µM.
As to `CC(C)(CO)C(=O)SCCOP(=O)(NCc1ccccc1C(F)(F)F)OC[C@H]1O[C@@H](n2ccc(N)nc2=O)[C@](C)(O)[C@@H]1O` (stereo in doubt) [Example B187, Hydroxy-tBuSATE N-(2-(trifluoromethyl)benzyl)phosphosphoramidate Derivative of 2′-C-methylcytidine], in data set [1] (setting [3]), the EC50 was 1 to 10 µM. Also, in data set [2], the CC50 was over 75 µM.
On the same counts, the results for `C[C@@]1(O)[C@H](O)[C@@H](CO)O[C@H]1n1ccc(=O)[nH]c1=O` [C809 (NM106), 2′-C-methyluridine, reference compound] are over 10 µM and over 75 µM.
Turning to `CC(C)(CO)C(=O)SCCOP(=O)(NCc1ccccc1)OC[C@H]1O[C@@H](n2cnc3c(=O)[nH]cnc32)[C@](C)(O)[C@@H]1O` (mixture of isomers) [Example B186, Hydroxy-tBuSATE N-benzylphosphoramidate Derivative of 2′-C-methylinosine], the EC50 in data set [1] (setting [3]) fell in the range of 1 to 10 µM. Also, the CC50 in data set [2] was over 75 µM.
With `CC(C)(CO)C(=O)SCCOP(=O)(OC[C@H]1O[C@@H](n2ccc(N)nc2=O)[C@](C)(O)[C@@H]1O)N1CCCC1` (mixture of isomers) [Example B395, Hydroxy-tBuSATE N-pyrrolidinephosphosphoramidate Derivative of 2′-C-methylcytidine], the EC50 in data set [1] (setting [4]) lay within 1 to 10 µM. In data set [2], this compound registered a CC50 at 72 h of over 75 µM.
